Read-outs that look alike come from different tables or passages of the source.
Legend:
[1] = test system: stomach emptying; experiment: Stomach emptying in the rat (stomach emptying index, glass beads), oral route; assay type: in vivo; design: key: index computed from beads emptied by treated (nx) vs control (nc) rats
Experimental: Stomach emptying in the rat, administering compounds via the oral (0.1-1 mg/Kg) and intraperitoneal routes (1-10 mg/Kg), (see Jacoby, H. I. and Brodie, D. A., Gastroenterol. 52, 676-684, 1967).
A stomach emptying index was calculated as follows:
40 Glass beads (diam.perspectiveto.1 mm) administered to each rat after dosing with the test compounds at 0.1, 0.3 and 1 mg/Kg p.o. Results calculated according to the formulae: [formula] where: nc =the number of beads empited by control animals.
nx =the number of beads emptied by treated animals.
SEI=Stomach emptying index [formula]

[2] = target: T1, central and peripheral D2 (DA2)--dopamine receptors (Rattus norvegicus, UniProt P61169); experiment: Apomorphine-induced stereotyped behaviour in the rat, intraperitoneal route; assay type: in vivo
T1 construct: Apomorphine-induced stereotyped behaviour in the rat, administering compounds via the intraperitoneal route; from tissue; host or cells: whole living rat (in vivo, intraperitoneal dosing)
T1 sequence (P61169 whole entry): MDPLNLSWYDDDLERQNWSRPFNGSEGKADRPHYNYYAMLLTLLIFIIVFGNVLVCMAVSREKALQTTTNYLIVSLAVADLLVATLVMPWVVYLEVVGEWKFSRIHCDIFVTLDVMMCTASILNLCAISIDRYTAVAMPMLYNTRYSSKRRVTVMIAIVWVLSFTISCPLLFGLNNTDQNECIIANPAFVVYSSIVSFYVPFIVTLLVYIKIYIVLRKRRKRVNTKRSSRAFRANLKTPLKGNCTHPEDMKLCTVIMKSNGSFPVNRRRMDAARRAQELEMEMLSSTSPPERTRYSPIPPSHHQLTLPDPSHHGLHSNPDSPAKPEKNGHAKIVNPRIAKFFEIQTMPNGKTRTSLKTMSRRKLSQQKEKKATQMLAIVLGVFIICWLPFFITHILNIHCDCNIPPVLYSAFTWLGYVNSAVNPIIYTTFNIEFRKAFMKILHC
Experimental: The pharmacological screening for undesirable effects upon central and peripheral D2 (DA2)--dopamine receptors was carried out using the following tests:
2. […]. (see Janssen, P. A. J., Niemegeers, C. J. E. and Jageneau, A. H. Arzneim. Forsch. 10, 1003-1005, 1960).

[3] = target: T2, central and peripheral D2 (DA2)--dopamine receptors (Canis lupus familiaris, UniProt Q9GJU1); experiment: Apomorphine-induced emesis in the dog, intravenous route; assay type: in vivo
T2 construct: Apomorphine-induced emesis in the dog, administering compounds via the intravenous route; from tissue; host or cells: whole living dog (in vivo, intravenous dosing)
T2 sequence (Q9GJU1 whole entry): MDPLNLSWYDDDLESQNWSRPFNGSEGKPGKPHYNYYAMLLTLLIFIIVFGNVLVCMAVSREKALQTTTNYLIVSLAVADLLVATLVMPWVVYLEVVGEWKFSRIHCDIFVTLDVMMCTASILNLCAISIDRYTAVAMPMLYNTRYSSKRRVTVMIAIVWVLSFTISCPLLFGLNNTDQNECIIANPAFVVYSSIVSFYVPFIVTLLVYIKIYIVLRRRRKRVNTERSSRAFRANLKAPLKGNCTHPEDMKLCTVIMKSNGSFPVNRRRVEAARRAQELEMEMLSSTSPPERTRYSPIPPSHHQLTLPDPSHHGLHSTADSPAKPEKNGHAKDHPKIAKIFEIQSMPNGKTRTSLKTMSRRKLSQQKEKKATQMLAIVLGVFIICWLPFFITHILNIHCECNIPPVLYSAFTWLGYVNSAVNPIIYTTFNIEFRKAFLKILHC
Experimental: The pharmacological screening for undesirable effects upon central and peripheral D2 (DA2)--dopamine receptors was carried out using the following tests: 3. […] (see […]., High, […]., Burke, J. C. and […]. Exp. Therap., 127, 55-65, 1959).

[4] = test system: dopamine receptors in the striatum and hypophysis; details: cited from earlier work
[5] = Table 1, 0.1, 0.3 and 1 mg/Kg p.o.
[6] = Table 2 (with aromatic compounds), 0.1, 0.3 and 1 mg/Kg p.o.
[7] = Table 2 (with aromatic compounds), ip
[8] = Table 2 (with aromatic compounds)

| Compound | Stomach emptying index in the rat via oral route [1, 5] | Antidopaminergic activity: rat stereotype behaviour induced by apomorphine, ID50 ([2]; Table 1, ip) [mg/kg] | Antidopaminergic activity: dog emesis screen, ID50 ([3]; Table 1) [mg/kg] | Stomach emptying index in the rat via oral route [1, 6] | Antidopaminergic activity: rat stereotype behaviour induced by apomorphine, ID50 [2, 7] [mg/kg] | Antidopaminergic activity: dog emesis screen, ID50 [3, 8] [mg/kg] | side effects associated with dopamine receptor blockade in some patients ([4]; human, in vivo) | side effects associated with dopamine receptor blockade in some patients ([4]; in words, some patients) |
| --- | --- | --- | --- | --- | --- | --- | --- | --- |
| CCCCOc1cc(N)c(Cl)cc1C(=O)NC1CCN(CC2OCCO2)CC1 [COMPOUND 66, N-[1-[2-(1,3-dioxolanyl)methyl]piperid-4-yl]-2-butoxy-4-amino-5-chlorobenzamide] | 53.7 | > 30.0 | > 1 | – | – | – | – | – |
| COc1cc(N)c([N+](=O)[O-])cc1C(=O)NC1CCN(Cc2cccs2)CC1 [COMPOUND B, reference compound] | – | – | – | 17.7 | 10 to 30 | 0.03 to 0.1 | – | – |
| CCN(CC)CCNC(=O)c1cc(Cl)c(N)cc1OC [METOCLOPRAMIDE, reference compound] | 24.7 | 5.4 | 0.0767 | 24.7 | 5.4 | 0.0767 | extrapyramidal symptoms and hyperprolactinemia related side effects in some patients | – |
| CCCOc1cc(N)c(Cl)cc1C(=O)NC1CCN(CC2OCCCO2)CC1 [COMPOUND 108] | 51.0 | > 30.0 | > 1 | – | – | – | – | – |
| CCCCOc1cc(N)c(Cl)cc1C(=O)NC1CCN(CC2OC3CCCCC3O2)CC1 (centres unmarked) [COMPOUND 95] | 49.0 | > 30.0 | > 1 | – | – | – | – | – |
| CCCCOc1cc(N)c(Cl)cc1C(=O)NC1CCN(CC2OCCCCO2)CC1 [COMPOUND 116] | 56.2 | > 30.0 | > 1 | – | – | – | – | – |
| COc1cc(N)c(Cl)cc1C(=O)NC1CCN(Cc2ccco2)CC1 [COMPOUND D, reference compound] | – | – | – | 19.3 | 3 to 10 | 0.01 to 0.03 | – | – |
| COc1cc(N)c(Cl)cc1C(=O)NC1CCN(CC2COCO2)CC1 (centres unmarked) [COMPOUND 98] | 60.1 | > 30.0 | > 1 | – | – | – | – | – |
| COc1cc(N)c(Cl)cc1C(=O)NC1CCN(Cc2ccccn2)CC1 [COMPOUND C, reference compound] | – | – | – | 25.0 | 10 to 30 | 0.03 to 0.1 | – | – |
| CCCCOc1cc(N)c(Cl)cc1C(=O)NC1CCN(CC2OCCCO2)CC1 [COMPOUND 109] | 61.3 | > 30.0 | > 1 | – | – | – | – | – |
| CCCOc1cc(N)c(Cl)cc1C(=O)NC1CCN(CCCC2CCCO2)CC1 (centres unmarked) [COMPOUND 39] | 45.8 | > 30.0 | > 1 | – | – | – | – | – |
| COc1cc(N)c(Cl)cc1C(=O)NC1CCN(Cc2ccccc2)CC1 [CLEBOPRIDE, N(1benzylpiperid-4-yl)-2-methoxy-4-amino-5-chlorobenzamide, reference compound] | 50.0 | 0.3 | 0.0096 | 50.0 | 0.3 | 0.0096 | – | extrapyramidal symptoms and hyperprolactinemia related side effects in some patients |
| CCCCOc1cc(N)c(Cl)cc1C(=O)NC1CCN(CC2OC(C)(C)C(C)(C)O2)CC1 [COMPOUND 91] | 54.9 | > 30.0 | > 1 | – | – | – | – | – |
| COc1cc(N)c(Cl)cc1C(=O)NC1CCN(Cc2cccs2)CC1 [COMPOUND A, reference compound] | – | – | – | 40.3 | 3 to 10 | 0.01 to 0.03 | – | – |
| CCCCOc1cc(N)c(Cl)cc1C(=O)NC1CCN(CC2CCCCO2)CC1 (centres unmarked) [COMPOUND 57] | 51.0 | > 30.0 | > 1 | – | – | – | – | – |
